Measured values reported in US20040044304A1, “Local drug delivery using photosensitizer-mediated and electromagnetic radiation enhanced vascular permeability” (priority 2002, published 2004).
Like-named read-outs stand apart in the source and are kept apart here.

System: blood vessels within the dorsal window chamber
Assay type: in vivo, Syrian golden hamsters
Details: for Observations 24 hr post FITC-Dextran administration / Observations immediately post FITC-Dextran administration (extravasation): blue 425 nm; for Leakage of FITC-Dextran, dependence on presence of photosensitizer: light doses used in the evaluable animals of Tables 1-4
Source text: Syrian golden hamsters (Charles River Laboratories, Kingston, N.Y.) weighing between 60-70 gram were surgically implanted with titanium back-pack window chambers as described ([…] et al., 1980; Colantuoni et al., 1984; […] et al., 1994). Prior to the surgical procedure, the dorsal surface of the mouse was shaved with electric clippers (Sunbeam Oster 2-Speed, 150 Cadillac Lane, McMinnville, Tenn., 37110) and then the shaved skin covered in a depilatory cream (Nair, Carter Products, New York, N.Y., 10105) for 10 minutes to remove the remaining hair. A dorsal skin fold consisting of two layers of skin and muscle tissue was then sandwiched between two opposing titanium frames (Campus Research Machine Shop, University of California, San Diego 9500 Gilman Drive, La Jolla, Calif.) with a 15 mm circular opening in each. Layers of skin and muscle fascia were separated from the sub-cutaneous tissue, and removed until a thin monolayer of muscle and one layer of intact skin remained. A coverglass (Type Circle 1, Part #12-545-80 sourced from Fisher Scientific, 2761 Walnut Avenue, Tustin, Calif., 92780) held by an expansion ring in the circular window of one titanium frame was then placed on the exposed tissue to allow direct microscopic visualization of the vasculature. The window in the second opposing titanium frame was left open exposing the intact skin. Two days following the implantation of the titanium chamber, an in-dwelling PE10 catheter (VVR Scientific, Westchester, Pa.) was implanted in the carotid artery. The catheter tubing was passed sub-cutaneously from the ventral to the dorsal side of the neck, and exteriorized through the skin at the base of the chamber. The patency of the catheter was ensured by daily flushing of the in-dwelling implanted tip with 0.005-0.01 ml of heparinized saline (40 IU/ml). The heparin was sourced from Upjohn Co., 100 Route […], Prepack, N.J., 07977, and the saline from Abbott Laboratories, North Chicago, Ill., 60064. Microvascular observations using an intra-vital microscope were not undertaken until at least 4 days post-chamber implantation to mitigate against post-surgical trauma, and to confirm that blood vessels within the chamber were functioning and intact and patent. A chamber was considered suitable for subsequent studies if microscopic examination of the preparation met the following criteria (as applied in […] et al., 1994): The intra-vital microscopic studies were undertaken on un-sedated animals held in a Plexiglass tube (Campus Research Machine Shop, University of California, San Diego 9500 Gilman Drive, La Jolla, Calif.) from which the window chamber sandwich protruded horizontally, allowing visualization of the chamber on the microscope stage. The Plexiglass tube acted to restrain the animals without impeding respiration. The intra-vital microscopy was performed using a Leitz Ortholux II (McBain Instruments, Inc., 9601 […] Avenue, Chatsworth, Calif., 91311) fitted with a Leitz Wetzlar 25× saline immersion objective lens, 0.6 numerical aperture (McBain Instruments, Inc., 9601 […] Avenue, Chatsworth, Calif., 91311), a Leitz Wetzlar 10× dry Planfluotar lens, 0.3 numerical aperture (McBain Instruments, Inc., 9601 […] Avenue, Chatsworth, Calif., 91311) and a Leitz Wetzlar 4× EF dry lens, 0.12 numerical aperture (McBain Instruments, Inc., 9601 […] Avenue, Chatsworth, Calif., 91311). A 100 Watt Hg light source (Olympus Corporation, 2 Corporate Center Drive, Melville, N.Y., 11747-3157) was used for both trans- and epi-illumination. For the trans-illumination studies the light was filtered using a 420 nm blue filter which selectively passed light in the region of the maximum absorbance band of hemoglobin, causing the red blood cells to appear as dark objects against a gray background. In addition, a heat filter was placed in the light path prior to the condenser to prevent hyperthermic effects on the tissue being examined.

CCOC(=O)C1=Cc2c3nc(cc4nc(cc5[n-]c(cc6[n-]c2c(C)c6CC)c(C)c5CC)C(C)=C4CC)[C@@H](C)[C@]13CC.[Cl-].[Cl-].[Sn] (racemic) [SnET2, tin ethyl etiopurpurin]
Observations 24 hr post FITC-Dextran administration (hamster A69, SnET2 1.0 mg/kg i.c., 25 J/cm^2, 44 mW/cm^2): Results as for Animal A35. | Observations immediately post FITC-Dextran administration (extravasation) (hamster A69, SnET2 1.0 mg/kg i.c., 25 J/cm^2, 44 mW/cm^2, FITC-Dextran approx. 45 min post PhotoPoint therapy): Results as for Animal A35. | Observations 24 hr post FITC-Dextran administration (hamster A70, SnET2 1.0 mg/kg i.c., 50 J/cm^2, 44 mW/cm^2): Results as for Animal A35. | Observations immediately post FITC-Dextran administration (extravasation) (hamster A70, SnET2 1.0 mg/kg i.c., 50 J/cm^2, 44 mW/cm^2, FITC-Dextran approx. 60 min post PhotoPoint therapy): Results as for Animal A35. | Effect on venules and veins during PhotoPoint therapy (hamster, in vivo): some minor constriction | Focal constrictions apparent in arterioles and arteries, time following the commencement of PhotoPoint therapy (hamster, in vivo): ≤ 30 s | Leakage of FITC-Dextran, dependence on presence of photosensitizer: only occurred when the photosensitizer (either MV6401 or SnET2) was present

C=Cc1c(C)c2[n]3c1=CC1=NC(=Cc4c(C)c5c([n]4[In]3[Cl])C(=C3N=C(C=2)[C@@H](C)[C@@H]3CCC(=O)OC)CC5=O)C(CC)=C1C [MV6401, indium methyl pyropheophorbide]
Observations immediately post FITC-Dextran administration (extravasation) (hamster A41, MV6401 0.05 mg/kg i.c., 50 J/cm^2, 80 mW/cm^2, FITC-Dextran approx. 30 min post PhotoPoint therapy): Results as for Animal A35 | Observations 24 hr post FITC-Dextran administration (hamster A46, MV6401 0.15 mg/kg i.c., 50 J/cm^2, 56.6 mW/cm^2): Results as for Animal A35. | Observations immediately post FITC-Dextran administration (extravasation) (hamster A46, MV6401 0.15 mg/kg i.c., 50 J/cm^2, 56.6 mW/cm^2, FITC-Dextran approx. 50 min post PhotoPoint therapy): Results as for Animal A35. | Dilation apparent in venules and veins, time following the commencement of PhotoPoint therapy (hamster, in vivo): ≤ 30 s | Focal constrictions apparent in arterioles and arteries, time following the commencement of PhotoPoint therapy (hamster, in vivo): ≤ 30 s | Edema apparent in tissue in chamber, 24 hr post FITC-Dextran administration (hamster, in vivo, 0.05 mg/kg): vascular damage. Severe | Vascular damage, 24 hr post FITC-Dextran administration (hamster, in vivo, 0.05 mg/kg): Gross and microscopic | Leakage of FITC-Dextran, dependence on presence of photosensitizer: only occurred when the photosensitizer (either MV6401 or SnET2) was present
